Experiments:
NK cells = assay: In vivo transactivation of NK cells (intracellular IFN‐γ, CD69) by flow cytometry; parameters: species or system mice; details: 1 μg i.v.; splenocytes at 12, 24 or 33 h
Description: Supplementary file EJI-46-1224-s001.pdf: Figure S1. […] Mice were immunized i.v. with 1 μg of lipids and splenocytes stained with anti‐CD11c and anti‐CD40 mAb to determine the extent of maturation by the expression of CD40 on gated DCs (CD11c+ cells) using flow cytometry. (n=3/group) Median Fluorescent Intensity=MFI. Error bars are mean ± SEM. Figure S2. IFN‐γ in serum of mice injected intramuscularly (i.m.) with iNKT cell agonists. C57BL/6 mice (n=4) or syngeneic CD1d knockout Mice (n=2) were injected intramuscularly with α‐GalCer, ThrCer 6 or vehicle. 18 hours later blood samples were tested for IFN‐γ using ELISA. As controls, mice (n=2) were injected intravenously with α‐GalCer or ThrCer 6. Error bars are mean ±SEM. one of two experiment is shown *p=0.0114. Figure S3. Transactivation of NK cells using non‐glycosidic analogues. Mice were immunized i.v. with 1 μg of lipids and sacrificed at 12 h, 24 h or 33 h post injection (n=3/group). Splenocytes were assessed by flow cytometry for the transactivation of NK cells (DX5+NK1.1+CD3‐ cells) using (B) the surface activation marker, CD69, or (A) intracellular IFN‐γ staining. Error bars are mean ± SEM. *p < 0.05. Representative of two independent experiments Figure S4. […] Data relating to numbers of ovalbumin specific T cells was analysed using the following gating stratagy: From top left to right and then bottom left to right. […]

iNKT hybridoma DN32.D3 = assay: CD11c+ splenocytes from lipid‐injected Jα18 knockout mice stimulating DN32.D3 (IL‐2 ELISA); format: in vivo; details: 1 μg i.v.; for Decline in stimulation of DN32.D3 by CD11c+ cells, 64 h compared with 12 h post injection: Jα18 knockout mice, IL‐2
Description: Figure 6 Enhanced bioavailability of ThrCer 6 as compared to ThrCer and α‐GalCer. (A) Mouse BMDCs were pulsed for 6 h with 100, 10, or 1 ng/mL of indicated iNKT‐cell agonists. Cells were washed and suspended in tissue culture medium in the absence of iNKT‐cell agonists for up to 24 h. Washed BMDCs were then cocultured with the murine iNKT cell hybridoma DN32.D3. Hundred percentage activation was defined for each iNKT‐cell agonist as the IL‐2 produced by DN32.D3 cocultured with BMDCs that were left with iNKT‐cell agonists throughout the pre coculture period (30 h). Diminished bioavailability is expressed as a percentage of the maximum DN32.D3 activation by each iNKT‐cell agonist. Number of replicates = 4. (B and C) Jα18 knockout mice were injected i.v. with 1 μg of ThrCer 6, α‐GalCer, or vehicle. Twelve hours or 64 h later, CD11c^+‐purified cells were cocultured with 5 × 10^4 DN32.D3 at different ratios. (B) IL‐2 in the supernatant from coculture of DN32.D3 with CD11c^+ cells isolated after 64 h was determined by ELISA. (C) IL‐2 levels of the same culture as percentage of the IL‐2 produced by DN32.D3 coincubated with CD11c^+ cells isolated 12 h after injection of lipids. […] Significance was calculated between α‐GalCer and ThrCer 6. *p < 0.05, **p < 0.01, ***p < 0.001, ****p < 0.0001; Student's t‐test.
To rule out the possibility that the results of these experiments could be modulated by the in vivo killing of CD11c^+ cells by iNKT cells, Jα18 knockout mice, lacking iNKT cells, were injected with ThrCer 6, α‐GalCer or vehicle, and then culled 12 or 64 h later. CD11c^+ cells enriched from the spleens were then coincubated with DN32.D3 for 17 h and IL‐2 production was measured in the supernatant (Fig. 6B and C).
Levels of iNKT‐cell agonists, presented by CD1d on the surface of cells, were assessed by the amount of IL‐2 secreted by iNKT hybridoma DN32.D3 coincubated with the presenting cells for 17–24 h. […] Levels of IL‐2 in the supernatant were determined by ELISA. iNKT‐cell hybridoma DN32.D3 was kindly provided by A. Bendelac 45.

human iNKT cells = assay: Human iNKT‐cell activation by lipid‐pulsed hCD1d C1R cells, IFN‐γ ELISA; format: cell-based; details: compared with α‐GalCer; particularly below 1 ng/mL
Description: To this end, hCD1d‐expressing C1R cells were loaded overnight with serial dilutions of lipids (α‐GalCer, ThrCer, ThrCer 6, and ThrCer 7) and then incubated with human iNKT cells. iNKT‐cell activation was assessed by measuring IFN‐γ production in the supernatant by ELISA.
Concentrations of murine IFN‐γ and IL‐4 in serum were determined using standard sandwich ELISAs using the R4‐6A2 capture Ab for IFN‐γ (eBioscience), and the ID11 capture Ab for IL‐4 (Endogen). Biotinylated XMG1.2 (eBioscience) was used as the detection Ab for IFN‐γ and biotinylated BVD6‐24G2 (eBioscience) was used as the detection Ab for IL‐4. Human IFN‐γ in supernatants was determined using the capture Ab NIB42 (BD Pharmingen) and biotinylated 4S.B3 (BD Pharmingen) as the detection Ab.
Human iNKT‐cells were expanded as described previously 34. […] The presence of IFN‐γ was detected in supernatants by ELISA 12. […] DC maturation was determined by the upregulation of CD86 by flow cytometry on a FACSCalibur with CellQuest software (BD) and analyzed with FlowJo software (Tree Star). For in vivo murine APC phenotype analysis the expression of CD86 or CD40 on CD11c^+ APCs from spleen were determined after 18 h post i.v. of 1 μg lipids on a CyAn cytometer and analyzed with FlowJo software (Tree Star).

Decline in stimulation of DN32.D3 by CD11c+ cells, 64 h compared with 12 h post injection (iNKT hybridoma DN32.D3)	Activation of DN32.D3 by splenic CD11c+ cells 64 h after in vivo injection (iNKT hybridoma DN32.D3; compared with α‐GalCer‐injected mice)	Structure (SMILES)	Transactivation of NK cells (intracellular IFN‐γ, CD69) (NK cells)	Activation of human iNKT cells (IFN‐γ in supernatant) (human iNKT cells)
less than 50%	more potent activators of DN32.D3 cells	CCCCCCCCCCCCCCCCCCCCCCCCCC(=O)N[C@@H](CO[C@H]1CC[C@H](O)[C@H](O)[C@H]1O)[C@H](O)[C@H](O)CCCCCCCCCCCCCC [ThrCer 6]	comparable transactivation of NK cells	greater activation of human iNKT cells
		CCCCCCCCCCCCCCCCCCCCCCCCCC(=O)NC(COC1CCCC(O)C(O)C1O)C(O)C(O)CCCCCCCCCCCCCC (stereo not shown) [ThrCer 7]		greater activation of human iNKT cells
more than 90%		CCCCCCCCCCCCCCCCCCCCCCCCCC(=O)N[C@@H](CO[C@H]1O[C@H](CO)[C@H](O)[C@H](O)[C@H]1O)[C@H](O)[C@H](O)CCCCCCCCCCCCCC [α‐GalCer, α‐galactosylceramide, reference compound]	comparable transactivation of NK cells	
